Data taken from patent publication US12077503B2, “Substituted cyclic amides and their use as herbicides” (FMC CORPORATION, priority 2015, dated 2024).

What was measured:
Type in all cases: in vivo
[1] = test system: corn (Zea mays); experiment: Test A postemergence
Procedure, shortened: (§1)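 Seeds sprayed preemergence with a directed soil spray, or plants at 2 to 10 cm height and one- to two-leaf stage sprayed postemergence, with test chemicals in a non-phytotoxic solvent mixture containing surfactant, in loam soil–sand blend. Injury rated visually against untreated controls after about 10 d in greenhouse, 0 (no effect) to 100 (complete control).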

[2] = test system: blackgrass (Alopecurus myosuroides); experiment: Test A postemergence
Procedure, shortened: as §1

[3] = test system: Kochia (Kochia scoparia); experiment: Test A postemergence
Procedure, shortened: as §1

[4] = test system: ragweed (common ragweed, Ambrosia elatior); experiment: Test A postemergence
Procedure, shortened: as §1

[5] = test system: giant foxtail (Setaria faberii); experiment: Test A postemergence
Procedure, shortened: as §1

[6] = test system: barnyardgrass (Echinochloa crus-galli); experiment: Test A postemergence
Procedure, shortened: as §1

[7] = test system: ryegrass, Italian (Italian ryegrass, Lolium multiflorum); experiment: Test A postemergence
Procedure, shortened: as §1

[8] = test system: Galium (catchweed bedstraw, Galium aparine); experiment: Test A postemergence
Procedure, shortened: as §1

[9] = test system: pigweed (Amaranthus retroflexus); experiment: Test A postemergence
Procedure, shortened: as §1

[10] = test system: wheat (Triticum aestivum); experiment: Test A postemergence
Procedure, shortened: as §1

[11] = test system: Kochia (Kochia scoparia); experiment: Test A preemergence
Procedure, shortened: as §1

[12] = test system: ragweed (common ragweed, Ambrosia elatior); experiment: Test A preemergence
Procedure, shortened: as §1

[13] = test system: giant foxtail (Setaria faberii); experiment: Test A preemergence
Procedure, shortened: as §1

[14] = test system: barnyardgrass (Echinochloa crus-galli); experiment: Test A preemergence
Procedure, shortened: as §1

[15] = test system: ryegrass, Italian (Italian ryegrass, Lolium multiflorum); experiment: Test A preemergence
Procedure, shortened: as §1

[16] = test system: pigweed (Amaranthus retroflexus); experiment: Test A preemergence
[17] = test system: rice (Oryra sativa); experiment: Test B flooded paddy test
Procedure, shortened: (§2)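 Greenhouse paddy pots with 2-leaf stage plants received compound by direct addition to floodwater 3 cm deep, kept at that level. Scored visually at 13–15 d versus controls (0 no effect; 100 complete control).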

[18] = test system: barnyardgrass (Echinochloa crus-galli); experiment: Test B flooded paddy test
Procedure, shortened: as §2

[19] = test system: ducksalad (Heteranthera limosa); experiment: Test B flooded paddy test
Procedure, shortened: as §2

[20] = test system: sedge, umbrella (small-flower umbrella sedge, Cyperus difformis); experiment: Test B flooded paddy test
Procedure, shortened: as §2

[21] = Zea mays, post-emergence, 240 h, read-out: Plant response rating, Corn
[22] = Alopecurus myosuroides, post-emergence, 240 h, read-out: Plant response rating, Blackgrass
[23] = Bassia scoparia, post-emergence, 240 h, read-out: Plant response rating, Kochia
[24] = Ambrosia artemisiifolia, post-emergence, 240 h, read-out: Plant response rating, Ragweed
[25] = Setaria faberi, post-emergence, 240 h, read-out: Plant response rating, Foxtail, Giant
[26] = Echinochloa crus-galli, post-emergence, 240 h, read-out: Plant response rating, Barnyardgrass
[27] = Lolium multiflorum, post-emergence, 240 h, read-out: Plant response rating, Ryegrass, Italian
[28] = Galium, post-emergence, 240 h, read-out: Plant response rating, Galium
[29] = Amaranthus retroflexus, post-emergence, 240 h, read-out: Plant response rating, Pigweed
[30] = Triticum aestivum, post-emergence, 240 h, read-out: Plant response rating, Wheat
[31] = 125 g ai/ha, postemergence, visual injury rating on 0 to 100 scale (0 no effect, 100 complete control), approx. 10 d
[32] = Postemergence, 500 g ai/ha, 0 to 100 scale where 0 is no effect and 100 is complete control
[33] = 125 g ai/ha, Preemergence, visual injury after approximately 10 d, 0 to 100 scale where 0 is no effect and 100 is complete control
[34] = Preemergence, 500 g ai/ha, visual injury approx. 10 d
[35] = Flood, 250 g ai/ha, 0 to 100 scale where 0 is no effect and 100 is complete control, 13 to 15 d

Compound: COc1ccc([C@H]2CN(C)C(=O)[C@@H]2C(=O)Nc2ccccc2SC)cc1F [Compound 1022]
- plant injury at 125 g/ha [1, 21]: 0%
- plant injury at 500 g/ha [1, 21]: 20%
- pest or weed control at 125 g/ha [2, 22]: 0%
- pest or weed control at 500 g/ha [2, 22]: 0%
- pest or weed control at 125 g/ha [3, 23]: 30%
- pest or weed control at 500 g/ha [3, 23]: 60%
- pest or weed control at 125 g/ha [4, 24]: 0%
- pest or weed control at 500 g/ha [4, 24]: 0%
- pest or weed control at 125 g/ha [5, 25]: 50%
- pest or weed control at 500 g/ha [5, 25]: 70%
- pest or weed control at 125 g/ha [6, 26]: 60%
- pest or weed control at 500 g/ha [6, 26]: 100%
- pest or weed control at 125 g/ha [7, 27]: 0%
- pest or weed control at 500 g/ha [7, 27]: 30%
- pest or weed control at 125 g/ha [8, 28]: 30%
- pest or weed control at 500 g/ha [8, 28]: 50%
- pest or weed control at 125 g/ha [9, 29]: 0%
- pest or weed control at 500 g/ha [9, 29]: 0%
- plant injury at 125 g/ha [10, 30]: 0%
- plant injury at 500 g/ha [10, 30]: 30%
- pest or weed control at 500 g/ha ([11]; Bassia scoparia, pre-emergence, 240 h, read-out: Kochia plant response rating): 80%
- pest or weed control at 125 g/ha ([11]; Bassia scoparia, pre-emergence, 240 h, read-out: Kochia plant response rating (0 to 100 scale, 0 is no effect, 100 is complete control)): 70%
- pest or weed control at 500 g/ha ([12]; Ambrosia artemisiifolia, pre-emergence, 240 h, read-out: Ragweed plant response rating): 0%
- pest or weed control at 125 g/ha ([12]; Ambrosia artemisiifolia, pre-emergence, 240 h, read-out: Ragweed plant response rating (0 to 100 scale, 0 is no effect, 100 is complete control)): 0%
- pest or weed control at 500 g/ha ([13]; Setaria faberi, pre-emergence, 240 h, read-out: Foxtail, Giant plant response rating): 100%
- pest or weed control at 125 g/ha ([13]; Setaria faberi, pre-emergence, 240 h, read-out: Foxtail, Giant plant response rating (0 to 100 scale, 0 is no effect, 100 is complete control)): 100%
- pest or weed control at 500 g/ha ([14]; Echinochloa crus-galli, pre-emergence, 240 h, read-out: Barnyardgrass plant response rating): 100%
- pest or weed control at 125 g/ha ([14]; Echinochloa crus-galli, pre-emergence, 240 h, read-out: Barnyardgrass plant response rating (0 to 100 scale, 0 is no effect, 100 is complete control)): 60%
- pest or weed control at 500 g/ha ([15]; Lolium multiflorum, pre-emergence, 240 h, read-out: Ryegrass, Italian plant response rating): 50%
- pest or weed control at 125 g/ha ([15]; Lolium multiflorum, pre-emergence, 240 h, read-out: Ryegrass, Italian plant response rating (0 to 100 scale, 0 is no effect, 100 is complete control)): 0%
- pest or weed control at 500 g/ha ([16]; Amaranthus retroflexus, pre-emergence, 240 h, read-out: Pigweed plant response rating): 70%
- pest or weed control at 125 g/ha ([16]; Amaranthus retroflexus, pre-emergence, 240 h, read-out: Pigweed plant response rating (0 to 100 scale, 0 is no effect, 100 is complete control)): 30%
- pest or weed control at 250 g/ha ([17]; Oryza sativa, read-out: Rice plant response rating): 0%
- pest or weed control at 250 g/ha ([18]; Echinochloa crus-galli, read-out: Barnyardgrass plant response rating): 0%
- pest or weed control at 250 g/ha ([19]; Heteranthera limosa, read-out: Ducksalad plant response rating): 75%
- pest or weed control at 250 g/ha ([20]; Cyperus difformis, read-out: Sedge, Umbrella plant response rating): 0%

Compound: O=C1NCC(c2ccc(C3CC3)cc2)C1C(=O)Nc1cccc(F)c1F (racemic) [Compound 501]
- Corn plant response rating [1, 31]: 0
- Plant response rating, Corn [1, 32]: 30
- Blackgrass plant response rating [2, 31]: 30
- Plant response rating, Blackgrass [2, 32]: 40
- Kochia plant response rating [3, 31]: 0
- Plant response rating, Kochia [3, 32]: 0
- Ragweed plant response rating [4, 31]: 0
- Plant response rating, Ragweed [4, 32]: 0
- Foxtail, Giant plant response rating [5, 31]: 70
- Plant response rating, Foxtail, Giant [5, 32]: 80
- Barnyardgrass plant response rating [6, 31]: 50
- Plant response rating, Barnyardgrass [6, 32]: 80
- Ryegrass, Italian plant response rating [7, 31]: 0
- Plant response rating, Ryegrass, Italian [7, 32]: 20
- Galium plant response rating [8, 31]: 0
- Plant response rating, Galium [8, 32]: 0
- Pigweed plant response rating [9, 31]: 0
- Plant response rating, Pigweed [9, 32]: 0
- Wheat plant response rating [10, 31]: 0
- Plant response rating, Wheat [10, 32]: 0
- Plant response rating, Kochia [11, 33]: 0
- Kochia plant response rating (0 to 100 scale, 0 is no effect, 100 is complete control) [11, 34]: 30
- Plant response rating, Ragweed [12, 33]: 0
- Ragweed plant response rating (0 to 100 scale, 0 is no effect, 100 is complete control) [12, 34]: 50
- Plant response rating, Foxtail, Giant [13, 33]: 80
- Foxtail, Giant plant response rating (0 to 100 scale, 0 is no effect, 100 is complete control) [13, 34]: 90
- Plant response rating, Barnyardgrass [14, 33]: 80
- Barnyardgrass plant response rating (0 to 100 scale, 0 is no effect, 100 is complete control) [14, 34]: 90
- Plant response rating, Ryegrass, Italian [15, 33]: 0
- Ryegrass, Italian plant response rating (0 to 100 scale, 0 is no effect, 100 is complete control) [15, 34]: 0
- Plant response rating, Pigweed [16, 33]: 0
- Pigweed plant response rating (0 to 100 scale, 0 is no effect, 100 is complete control) [16, 34]: 20
- Plant response rating, Rice [17, 35]: 0
- Plant response rating, Barnyardgrass [18, 35]: 20
- Plant response rating, Ducksalad [19, 35]: 85
- Plant response rating, Sedge, Umbrella [20, 35]: 0
